From PMC4601023, “Novel anticancer agent, SQAP, binds to focal adhesion kinase and modulates its activity” (Scientific Reports, 2015)

What was measured:
[1] = target: VEGF (Homo sapiens, UniProt P15692); test: SPR analysis of SQAP-VEGF interaction; format: binding; details: data not shown
Excerpt: The phosphorylation of FAK in response to VEGF plays an important role in the regulation of endothelial cell migration during angiogenesis. Therefore we hypothesized that SQAP activity could potentially be mediated through binding to FAK. […] In this region, FAK interacts with paxillin through FAT domain and becomes autophosphorylated on Y397[29][30]. Y397 is an autophosphorylation site which is crucial for FAK activity and has been related to apoptosis and tumor growth. FAK is also phosphorylated at Y925, leading to the regulation of adhesion turnover and cell motility. Thus we chose to study the FAK phosphorylation on Y397 and Y925 residues. Initially, we examined whether SQAP affected phosphorylation of FAK in HUVEC cells stimulated with VEGF in the presence or absence of SQAP. […] Since SQMG was previously reported to bind to VEGF[34], we could not rule out the possibility of a binding between SQAP and VEGF so we analyzed this interaction by SPR. […] Therefore, we investigated whether SQAP could inhibit FAK phosphorylation independently of VEGF. We analyzed FAK phosphorylation in the absence of VEGF and observed that SQAP inhibited the phosphorylation of FAK signal within 1 h in a VEGF independent manner (Fig. 5B). Additionally, we treated HUVEC with VEGF in the presence of SQMG and SQP.

[2] = tested on: HUVEC cells; test: Wound healing assay, HUVEC; format: cell-based, human; details: 11 h, 1% FBS and VEGF 50 ng/mL, control 32%
Procedure: Figure 6 SQAP inhibits cell migration in vitro. (A) HUVEC cells were seeded and grown to 100% confluence in 60-mm diameter dishes. After generating a single scratch in the monolayer, the cells were cultured for 11 h in medium containing 1% FBS and VEGF (50 ng/mL) in the presence or absence of SQAP. Photographs were taken immediately after 11 h. (B) The change in wound width was measured as described in the Materials and Methods. (C) A549 cells were seeded and grown to 100% confluence in 60-mm diameter dishes. After generating a single scratch in the monolayer, the cells cultured for the 25 h in media containing 1% FBS and fibronectin (10 μg/ml) treated with SQAP or vehicle. Photographs were collected immediately after wounding and after 25 h. (D) The change in wound width was measured as described in the Materials and Methods. Cell migration was additionally examined in 96 well plates. HUVEC (E) and A549 cells (F) were seeded and grown into confluence overnight. After removing the stoppers, the live cells were stained with CellTracker^TM Green and incubated for the indicated time. The fluorescent emission signal was obtained with a plate reader. […]
Wound healing assay was analyzed by microscope imaging. […] Wound diameters in the images were measured and percentage of wound size was calculated as follows: [wound diameter at 11 or 25 h/wound diameter at 0 h] x 100.

[3] = target: T1, HR23B (Homo sapiens, UniProt P54727); test: SPR analysis, immobilized GST-HR23B (GST control subtracted); format: binding; details: no kinetic analysis
T1 construct: ADRM1 and HR23B human full length proteins were purchased; purchased Abnova (Taipei, Taiwan)
T1 sequence (P54727 whole entry): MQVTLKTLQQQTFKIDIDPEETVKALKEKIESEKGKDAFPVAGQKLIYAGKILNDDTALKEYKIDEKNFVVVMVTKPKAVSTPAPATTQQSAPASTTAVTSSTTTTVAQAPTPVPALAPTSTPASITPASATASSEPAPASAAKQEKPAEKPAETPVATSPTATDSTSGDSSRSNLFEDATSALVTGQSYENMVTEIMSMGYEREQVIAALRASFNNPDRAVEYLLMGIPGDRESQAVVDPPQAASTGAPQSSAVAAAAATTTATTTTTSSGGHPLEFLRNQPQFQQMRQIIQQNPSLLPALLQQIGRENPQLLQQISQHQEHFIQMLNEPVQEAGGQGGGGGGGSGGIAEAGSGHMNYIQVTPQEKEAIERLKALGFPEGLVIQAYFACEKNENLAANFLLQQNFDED
Excerpt: SPR was utilized as an independent confirmation of the kinetic parameters between SQAP and the putative binding proteins. […] The recombinant proteins were then expressed in Escherichia coli and purified to homogeneity. In addition, full length, His-tagged ADRM1 and GST-tagged HR23B (GST-HR23B) were also used. The proteins were first immobilized on a CM5 sensor chip of the SPR biosensor (Biacore 3000). For GST-HR23B analysis, a GST protein was additionally immobilized and used as a control in order to eliminate possible nonspecific binding of SQAP. SQAP samples at different concentrations were then injected over the proteins immobilized on the sensor chip. As a negative control we used sulfoquynovosylpropanediol (SQP), which lacks the fatty acid moiety of SQAP (Fig. 1). […]
The binding kinetics of SCP-2, MFE-2, ADRM1, HR23B and FAK with SQAP and SQP were analyzed on a Biacore 3000 instrument (GE Healthcare, Little Chalfont, UK). […] The buffer of purified peptides was exchanged to HBS-P (150 mM NaCl, 0.005% Surfactant P20, 10 mM HEPES-NaOH pH 7.4) using a PD 10 column (GE Healthcare, Little Chalfont, UK) and the concentrations were quantified using DC protein assay kit (Bio-Rad Laboratories, Hercules, CA, USA). […] Kinetic parameters were determined by analyzing the data using BIAevaluation 4.1 software (GE Healthcare, Little Chalfont, UK).

Sequence of VEGF (P15692 whole entry, species assumed, the tested form may be a part): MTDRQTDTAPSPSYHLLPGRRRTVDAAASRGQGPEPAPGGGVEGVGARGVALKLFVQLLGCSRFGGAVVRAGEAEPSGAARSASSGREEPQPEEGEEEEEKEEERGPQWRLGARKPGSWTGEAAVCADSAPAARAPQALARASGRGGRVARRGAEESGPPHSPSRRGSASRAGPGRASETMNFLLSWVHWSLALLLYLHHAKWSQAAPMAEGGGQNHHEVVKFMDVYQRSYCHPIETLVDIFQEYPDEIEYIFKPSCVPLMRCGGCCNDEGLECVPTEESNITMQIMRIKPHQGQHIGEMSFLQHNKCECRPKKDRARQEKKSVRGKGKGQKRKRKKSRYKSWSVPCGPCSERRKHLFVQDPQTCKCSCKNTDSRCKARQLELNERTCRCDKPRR

binding to VEGF (SPR) [1]: did bind
Compound: CCCCCCCCCCCCCCCCCC(=O)OCCCO[C@H]1O[C@H](CS(=O)(=O)O)[C@@H](O)[C@H](O)[C@H]1O [SQAP, sulfoquynovosylacylpropanediol]
wound size [2]: 62%
binding to HR23B (SPR response) [3]: specific binding response of SQAP in a dose-dependent manner
